# Reference: PubChem BioAssay AID248 (DTP/NCI, 2004)
# Values joined by “and” are separate entries in the source; they are usually repeats but may differ in a detail not shown here. Identical values can stand only once. Toxic doses and inconclusive results are not listed.
# Test system: L1210 leukemia ip in BDF1 mice, survival T/C
# Assay: NCI In Vivo Anticancer Drug Screen. Data for tumor model L1210 Leukemia (intraperitoneal) in B6D2F1 (BDF1) mice
# Conditions: endpoint: mean survival time, higher = longer survival
# Outline: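 Read-out is survival time, reported as the treated-group measurement over the vehicle-control measurement.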
compound,measurement,setting,value
NC(=S)N/N=C/c1ccc(O)cn1,T/C,"dose: 3.13 mg/kg/injection, schedule: Q03HX024 (ip), vehicle: Klucel (hydroxypropylcellulose) (HPC)",120 % of control
same,T/C,"dose: 3.13 mg/kg/injection, schedule: Q03HX024 (ip), vehicle: other",120 % of control
same,T/C,"dose: 3.13 mg/kg/injection, schedule: Q03HX024 (ip), vehicle: saline",113 % of control
same,T/C,"dose: 6.25 mg/kg/injection, schedule: Q03HX024 (ip), vehicle: other",106 % of control
same,T/C,"dose: 9.5 mg/kg/injection, schedule: Q01DX005 (iv), vehicle: other",104 % of control
same,T/C,"dose: 11.0 mg/kg/injection, schedule: Q03HX032 (ip), vehicle: saline with Tween-80",123 % of control
same,T/C,"dose: 12.5 mg/kg/injection, schedule: Q03HX024 (ip), vehicle: other",106 % of control
same,T/C,"dose: 12.5 mg/kg/injection, schedule: Q03HX024 (ip), vehicle: saline",159 % of control
same,T/C,"dose: 19.0 mg/kg/injection, schedule: Q01DX005 (iv), vehicle: other",111 % of control
same,T/C,"dose: 25.0 mg/kg/injection, schedule: Q01DX015 (ip), vehicle: carboxymethylcellulose (CMC)",158 % of control
same,T/C,"dose: 33.0 mg/kg/injection, schedule: Q## X008 (ip), vehicle: other",124 % of control
same,T/C,"dose: 33.0 mg/kg/injection, schedule: Q## X016 (ip), vehicle: other",122 % of control
same,T/C,"dose: 37.5 mg/kg/injection, schedule: Q01DX005 (ip), vehicle: other",159 % of control
same,T/C,"dose: 40.0 mg/kg/injection, schedule: Q06HX016 (ip), vehicle: Klucel (hydroxypropylcellulose) (HPC)",154 % of control
same,T/C,"dose: 44.0 mg/kg/injection, schedule: Q03HX032 (ip), vehicle: saline with Tween-80",159 % of control
same,T/C,"dose: 50.0 mg/kg/injection, schedule: Q01DX001 (ip), vehicle: saline",114 % of control
same,T/C,"dose: 50.0 mg/kg/injection, schedule: Q01DX009 (oral), vehicle: carboxymethylcellulose (CMC)",120 % of control
same,T/C,"dose: 50.0 mg/kg/injection, schedule: Q03HX024 (ip), vehicle: other",151 % of control
same,T/C,"dose: 50.0 mg/kg/injection, schedule: Q03HX024 (ip), vehicle: saline",151 % of control
same,T/C,"dose: 62.0 mg/kg/injection, schedule: Q03HX032 (ip), vehicle: carboxymethylcellulose (CMC)",118 % of control
same,T/C,"dose: 66.0 mg/kg/injection, schedule: Q03HX032 (ip), vehicle: saline with Tween-80",102 % of control and 116 % of control
same,T/C,"dose: 75.0 mg/kg/injection, schedule: Q03HX008 (ip), vehicle: alkali diluted with saline",156 % of control
same,T/C,"dose: 93.0 mg/kg/injection, schedule: Q03HX032 (ip), vehicle: carboxymethylcellulose (CMC)",96 % of control
same,T/C,"dose: 100.0 mg/kg/injection, schedule: Q01DX001 (ip), vehicle: saline",120 % of control
same,T/C,"dose: 100.0 mg/kg/injection, schedule: Q01DX001 (oral), vehicle: other",106 % of control
same,T/C,"dose: 100.0 mg/kg/injection, schedule: Q01DX009 (oral), vehicle: other",121 % of control
same,T/C,"dose: 100.0 mg/kg/injection, schedule: Q03HX024 (ip), vehicle: saline",104 % of control
same,T/C,"dose: 100.0 mg/kg/injection, schedule: Q04DX003 (ip), vehicle: alkali diluted with saline",111 % of control
same,T/C,"dose: 100.0 mg/kg/injection, schedule: Q## X002 (oral), vehicle: other",98 % of control
same,T/C,"dose: 100.0 mg/kg/injection, schedule: Q## X003 (oral), vehicle: other",108 % of control
same,T/C,"dose: 100.0 mg/kg/injection, schedule: Q## X008 (oral), vehicle: other",101 % of control
same,T/C,"dose: 100.0 mg/kg/injection, schedule: Q## X016 (oral), vehicle: other",97 % of control
same,T/C,"dose: 100.0 mg/kg/injection, schedule: Q## X024 (oral), vehicle: other",101 % of control
same,T/C,"dose: 150.0 mg/kg/injection, schedule: Q01DX001 (ip), vehicle: alkali diluted with saline",104 % of control
same,T/C,"dose: 150.0 mg/kg/injection, schedule: Q01DX001 (ip), vehicle: other",118 % of control
same,T/C,"dose: 150.0 mg/kg/injection, schedule: Q03HX024 (ip), vehicle: saline",152 % of control
same,T/C,"dose: 150.0 mg/kg/injection, schedule: Q08DX002 (ip), vehicle: alkali diluted with saline",102 % of control
same,T/C,"dose: 150.0 mg/kg/injection, schedule: Q## X002 (ip), vehicle: other",114 % of control
same,T/C,"dose: 150.0 mg/kg/injection, schedule: Q## X016 (ip), vehicle: other",153 % of control
same,T/C,"dose: 200.0 mg/kg/injection, schedule: Q01DX001 (oral), vehicle: other",103 % of control
same,T/C,"dose: 200.0 mg/kg/injection, schedule: Q01DX009 (ip), vehicle: saline",119 % of control
same,T/C,"dose: 200.0 mg/kg/injection, schedule: Q01DX009 (oral), vehicle: carboxymethylcellulose (CMC)",157 % of control
same,T/C,"dose: 200.0 mg/kg/injection, schedule: Q04DX003 (ip), vehicle: alkali diluted with saline",112 % of control
same,T/C,"dose: 200.0 mg/kg/injection, schedule: Q## X002 (oral), vehicle: other",104 % of control
same,T/C,"dose: 200.0 mg/kg/injection, schedule: Q## X003 (oral), vehicle: other",112 % of control
